Assay results from publication PMC4649089, “Urea Unfolding Study of E. coli Alanyl-tRNA Synthetase and Its Monomeric Variants Proves the Role of C-Terminal Domain in Stability” (Journal of Amino Acids, 2015).
Residue numbers refer to the chain shown, from its start.

T1: WT-alaRS (Escherichia coli, UniProt P00957)
T1 construct: gene alaS; full length, 875 residues, N-terminal His tag (pET28a), expressed in E. coli BL21(DE3), homodimer, 192500 Da
T1 sequence (P00957 2-876): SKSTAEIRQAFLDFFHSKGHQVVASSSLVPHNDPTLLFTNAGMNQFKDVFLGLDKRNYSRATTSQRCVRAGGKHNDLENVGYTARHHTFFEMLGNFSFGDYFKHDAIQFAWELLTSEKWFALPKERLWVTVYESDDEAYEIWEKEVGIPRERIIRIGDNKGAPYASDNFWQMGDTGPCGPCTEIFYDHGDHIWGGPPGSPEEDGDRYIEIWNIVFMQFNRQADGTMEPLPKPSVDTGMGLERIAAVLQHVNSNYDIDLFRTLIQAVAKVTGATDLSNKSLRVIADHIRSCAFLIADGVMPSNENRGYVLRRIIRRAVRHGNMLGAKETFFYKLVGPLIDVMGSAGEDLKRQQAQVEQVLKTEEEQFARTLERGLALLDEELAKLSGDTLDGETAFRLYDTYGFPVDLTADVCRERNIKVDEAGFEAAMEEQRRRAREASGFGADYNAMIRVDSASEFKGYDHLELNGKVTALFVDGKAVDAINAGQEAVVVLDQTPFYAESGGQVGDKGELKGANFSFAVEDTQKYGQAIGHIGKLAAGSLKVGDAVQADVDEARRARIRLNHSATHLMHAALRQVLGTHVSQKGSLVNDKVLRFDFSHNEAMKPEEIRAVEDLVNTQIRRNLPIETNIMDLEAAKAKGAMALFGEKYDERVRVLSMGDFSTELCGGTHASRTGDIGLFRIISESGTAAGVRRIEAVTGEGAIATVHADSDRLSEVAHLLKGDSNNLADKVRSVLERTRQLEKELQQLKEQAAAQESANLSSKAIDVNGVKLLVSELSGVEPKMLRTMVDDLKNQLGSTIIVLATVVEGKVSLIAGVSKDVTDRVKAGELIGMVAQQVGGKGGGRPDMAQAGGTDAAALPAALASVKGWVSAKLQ

T2: N461 alaRS (Escherichia coli, UniProt P00957)
T2 construct: gene alaS; N-terminal residues 1-461 (aminoacylation and tRNA recognition domain), N-terminal His tag (pET28a), expressed in E. coli BL21(DE3), monomer, 50710 Da
T2 sequence (P00957 2-462): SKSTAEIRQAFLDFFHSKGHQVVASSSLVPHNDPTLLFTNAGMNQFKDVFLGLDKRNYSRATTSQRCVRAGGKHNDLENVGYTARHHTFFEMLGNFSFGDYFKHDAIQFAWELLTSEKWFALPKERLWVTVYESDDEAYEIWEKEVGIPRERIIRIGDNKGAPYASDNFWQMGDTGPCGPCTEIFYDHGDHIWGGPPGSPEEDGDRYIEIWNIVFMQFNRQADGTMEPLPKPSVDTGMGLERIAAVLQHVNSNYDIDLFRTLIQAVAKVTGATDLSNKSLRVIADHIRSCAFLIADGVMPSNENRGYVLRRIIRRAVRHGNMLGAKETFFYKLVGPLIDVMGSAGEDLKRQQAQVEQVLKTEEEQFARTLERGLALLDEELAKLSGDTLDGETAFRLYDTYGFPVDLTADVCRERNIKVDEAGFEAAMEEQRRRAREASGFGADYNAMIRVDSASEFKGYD

T3: N700 alaRS (Escherichia coli, UniProt P00957)
T3 construct: gene alaS; N-terminal residues 1-700, N-terminal His tag (pET20a), expressed in E. coli BL21(DE3), monomer, 77000 Da
T3 sequence (P00957 2-701): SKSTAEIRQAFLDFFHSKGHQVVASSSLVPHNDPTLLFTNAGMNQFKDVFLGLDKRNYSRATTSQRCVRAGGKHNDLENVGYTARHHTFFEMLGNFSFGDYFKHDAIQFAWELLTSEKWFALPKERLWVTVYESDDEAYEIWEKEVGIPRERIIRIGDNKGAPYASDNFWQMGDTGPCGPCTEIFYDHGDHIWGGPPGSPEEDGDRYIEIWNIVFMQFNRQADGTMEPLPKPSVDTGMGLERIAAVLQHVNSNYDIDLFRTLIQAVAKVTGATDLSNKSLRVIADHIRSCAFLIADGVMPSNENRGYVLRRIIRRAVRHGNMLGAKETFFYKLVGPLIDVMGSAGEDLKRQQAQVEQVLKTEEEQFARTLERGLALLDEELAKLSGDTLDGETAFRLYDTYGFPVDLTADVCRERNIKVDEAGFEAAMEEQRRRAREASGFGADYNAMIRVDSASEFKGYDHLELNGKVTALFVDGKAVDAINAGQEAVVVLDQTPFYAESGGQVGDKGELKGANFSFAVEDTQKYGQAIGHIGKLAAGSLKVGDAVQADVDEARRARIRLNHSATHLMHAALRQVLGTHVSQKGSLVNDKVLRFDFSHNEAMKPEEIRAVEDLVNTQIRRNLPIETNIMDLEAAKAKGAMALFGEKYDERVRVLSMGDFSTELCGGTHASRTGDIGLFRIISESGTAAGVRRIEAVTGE

T4: alaRS (Escherichia coli, UniProt P00957, G675D)
T4 construct: gene alaS; full length, 875 residues, N-terminal His tag (pET28a), expressed in E. coli BL21(DE3), homodimer, 192500 Da
T4 sequence (P00957 2-876 G675D): T1 sequence (P00957 2-876) with G674D

B1: wild type E. coli alanyl-tRNA synthetase (enzyme, UniProt P00957 1-876, looked up)
chain: MSKSTAEIRQAFLDFFHSKGHQVVASSSLVPHNDPTLLFTNAGMNQFKDVFLGLDKRNYSRATTSQRCVRAGGKHNDLENVGYTARHHTFFEMLGNFSFGDYFKHDAIQFAWELLTSEKWFALPKERLWVTVYESDDEAYEIWEKEVGIPRERIIRIGDNKGAPYASDNFWQMGDTGPCGPCTEIFYDHGDHIWGGPPGSPEEDGDRYIEIWNIVFMQFNRQADGTMEPLPKPSVDTGMGLERIAAVLQHVNSNYDIDLFRTLIQAVAKVTGATDLSNKSLRVIADHIRSCAFLIADGVMPSNENRGYVLRRIIRRAVRHGNMLGAKETFFYKLVGPLIDVMGSAGEDLKRQQAQVEQVLKTEEEQFARTLERGLALLDEELAKLSGDTLDGETAFRLYDTYGFPVDLTADVCRERNIKVDEAGFEAAMEEQRRRAREASGFGADYNAMIRVDSASEFKGYDHLELNGKVTALFVDGKAVDAINAGQEAVVVLDQTPFYAESGGQVGDKGELKGANFSFAVEDTQKYGQAIGHIGKLAAGSLKVGDAVQADVDEARRARIRLNHSATHLMHAALRQVLGTHVSQKGSLVNDKVLRFDFSHNEAMKPEEIRAVEDLVNTQIRRNLPIETNIMDLEAAKAKGAMALFGEKYDERVRVLSMGDFSTELCGGTHASRTGDIGLFRIISESGTAAGVRRIEAVTGEGAIATVHADSDRLSEVAHLLKGDSNNLADKVRSVLERTRQLEKELQQLKEQAAAQESANLSSKAIDVNGVKLLVSELSGVEPKMLRTMVDDLKNQLGSTIIVLATVVEGKVSLIAGVSKDVTDRVKAGELIGMVAQQVGGKGGGRPDMAQAGGTDAAALPAALASVKGWVSAKLQ
notes: alanyl-tRNA synthetase (alaRS), E. coli, full length, printed as 875 residues per subunit; Clone was a gift from Paul Schimmel; homodimer by sedimentation equilibrium and velocity; also called WT-alaRS; WT; source: E. coli BL21 (DE3), pET28a, purified (Ni-NTA agarose)

What was measured:
WT-alaRS = target: T1, WT-alaRS; assay: ANS fluorescence titration; format: binding; conditions: read-out: dissociation constant
N461 alaRS = target: T2, N461 alaRS; assay: ANS fluorescence titration; format: binding; conditions: read-out: dissociation constant
N700 alaRS = target: T3, N700 alaRS; assay: ANS fluorescence titration; format: binding; conditions: read-out: dissociation constant
alaRS = target: T4, alaRS; assay: ANS fluorescence titration; format: binding; conditions: read-out: dissociation constant
[1] = target: the molecule itself; assay: AUC; sedimentation equilibrium, loading concentrations 5 μM, 10 μM and 20 μM (monomer), 20°C, 100 mM Tris-HCl pH 8.0, global single-species fit in SEDPHAT

Molecule	Kd (WT-alaRS)	Kd (N461 alaRS)	Kd (N700 alaRS)	Kd (alaRS)	stoichiometry N [1]
O=S(=O)(O)c1cccc2cccc(Nc3ccccc3)c12 [ANS]	1000 to 5000 nM	1000 to 5000 nM	1000 to 5000 nM	1000 to 5000 nM	–
B1	–	–	–	–	2
